Experiments:
Experiment in all cases: relative viability (nuclei count vs DMSO), 5 days (fraction); higher = more cells survive
LXF-289 = system: LXF-289
In short: (§1)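 For relative viability, nuclei counts in treated wells were divided by those in vehicle wells. Lung cancer cell lines had been pin-tool dosed in 1536-well plates the day after seeding and cultured for 5 days, then fixed and stained in one step (final 0.05% Triton X-100, 1% formaldehyde, 1 ug/ml Hoechst) and imaged at 4×. Doses were one drug alone or a fixed anchor-drug dose plus five library-drug doses (not always all listed) in √10 steps, and values are duplicate-plate medians.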

EPLC-272H = system: EPLC-272H
In short: as §1

SW 1573 = system: SW 1573
In short: as §1

LCLC-103H = system: LCLC-103H
In short: as §1

SW 900 = system: SW 900
In short: as §1

EMC-BAC-2 = system: EMC-BAC-2
In short: as §1

RERF-LC-KJ = system: RERF-LC-KJ
In short: as §1

NCI-H1975 = system: NCI-H1975
In short: as §1

ChaGo-K-1 = system: ChaGo-K-1
In short: as §1

NCI-H2085 = system: NCI-H2085
In short: as §1

NCI-H2405 = system: NCI-H2405
In short: as §1

LU99A = system: LU99A
In short: as §1

NCI-H23 = system: NCI-H23
In short: as §1

LOU-NH91 = system: LOU-NH91
In short: as §1

NCI-H2126 = system: NCI-H2126
In short: as §1

HCC-827 = system: HCC-827
In short: as §1

SK-LU-1 = system: SK-LU-1
In short: as §1

HCC-366 = system: HCC-366
In short: as §1

HCC-78 = system: HCC-78
In short: as §1

HCC-44 = system: HCC-44
In short: as §1

NCI-H3122 = system: NCI-H3122
In short: as §1

NCI-H1666 = system: NCI-H1666
In short: as §1

LK-2 = system: LK-2
In short: as §1

For `COc1cc(N2CCC(C(N)=O)CC2)ccc1Nc1nc(N)c(Cl)c(Nc2ccccc2S(=O)(=O)C(C)C)n1` [HG-5-88-01] + O=C(c1cc(Cc2n[nH]c(=O)c3ccccc23)ccc1F)N1CCN(C(=O)C2CC2)CC1 [Olaparib] (partner 8 µM), the relative viability (LXF-289; first compound 0.04 µM) was 0.988, the relative viability (LXF-289; first compound 0.1265 µM) was 1.13 and the relative viability (LXF-289; first compound 0.4 µM) was 1.02. It also gave a relative viability (LXF-289; first compound 1.265 µM) of 1.07, a relative viability (LXF-289; first compound 4 µM) of 1.08 and a relative viability (EPLC-272H; first compound 0.04 µM) of 0.976. For the same molecule, the relative viability (EPLC-272H; first compound 0.1265 µM) was 0.785, the relative viability (EPLC-272H; first compound 0.4 µM) was 0.959 and the relative viability (EPLC-272H; first compound 1.265 µM) was 0.495. For the same molecule, the relative viability (EPLC-272H; first compound 4 µM) was 0.0585, the relative viability (SW 1573; first compound 0.04 µM) was 0.562 and the relative viability (SW 1573; first compound 0.1265 µM) was 0.554. For the same molecule, the relative viability (SW 1573; first compound 0.4 µM) was 0.438, the relative viability (SW 1573; first compound 1.265 µM) was 0.368 and the relative viability (SW 1573; first compound 4 µM) was 0.375. For the same molecule, the relative viability (LCLC-103H; first compound 0.04 µM) was 0.714, the relative viability (LCLC-103H; first compound 0.1265 µM) was 0.748 and the relative viability (LCLC-103H; first compound 0.4 µM) was 0.697. For the same molecule, the relative viability (LCLC-103H; first compound 1.265 µM) was 0.654, the relative viability (LCLC-103H; first compound 4 µM) was 0.719 and the relative viability (SW 900; first compound 0.04 µM) was 0.954. It also gave a relative viability (SW 900; first compound 0.1265 µM) of 1.06, a relative viability (SW 900; first compound 0.4 µM) of 0.867 and a relative viability (SW 900; first compound 1.265 µM) of 0.848. It also gave a relative viability (SW 900; first compound 4 µM) of 0.631, a relative viability (EMC-BAC-2; first compound 0.04 µM) of 0.482 and a relative viability (EMC-BAC-2; first compound 0.1265 µM) of 0.526. The relative viability (EMC-BAC-2; first compound 0.4 µM) was 0.615, the relative viability (EMC-BAC-2; first compound 1.265 µM) was 0.459 and the relative viability (EMC-BAC-2; first compound 4 µM) was 0.46. For the same molecule, the relative viability (RERF-LC-KJ; first compound 0.04 µM) was 0.937, the relative viability (RERF-LC-KJ; first compound 0.1265 µM) was 0.957 and the relative viability (RERF-LC-KJ; first compound 0.4 µM) was 0.878. It also gave a relative viability (RERF-LC-KJ; first compound 1.265 µM) of 0.884, a relative viability (RERF-LC-KJ; first compound 4 µM) of 0.519 and a relative viability (NCI-H1975; first compound 0.04 µM) of 0.834. For the same molecule, the relative viability (NCI-H1975; first compound 0.1265 µM) was 0.822, the relative viability (NCI-H1975; first compound 0.4 µM) was 0.782 and the relative viability (NCI-H1975; first compound 1.265 µM) was 0.715. It also gave a relative viability (NCI-H1975; first compound 4 µM) of 0.419, a relative viability (ChaGo-K-1; first compound 0.04 µM) of 0.421 and a relative viability (ChaGo-K-1; first compound 0.1265 µM) of 0.418. It also gave a relative viability (ChaGo-K-1; first compound 0.4 µM) of 0.455, a relative viability (ChaGo-K-1; first compound 1.265 µM) of 0.421 and a relative viability (ChaGo-K-1; first compound 4 µM) of 0.393. For the same molecule, the relative viability (NCI-H2085; first compound 0.04 µM) was 0.853, the relative viability (NCI-H2085; first compound 0.1265 µM) was 0.753 and the relative viability (NCI-H2085; first compound 0.4 µM) was 0.833. It also gave a relative viability (NCI-H2085; first compound 1.265 µM) of 0.765, a relative viability (NCI-H2085; first compound 4 µM) of 0.871 and a relative viability (NCI-H2405; first compound 0.04 µM) of 0.885. For the same molecule, the relative viability (NCI-H2405; first compound 0.1265 µM) was 0.904, the relative viability (NCI-H2405; first compound 0.4 µM) was 0.807 and the relative viability (NCI-H2405; first compound 1.265 µM) was 0.524. The relative viability (NCI-H2405; first compound 4 µM) was 0.75, the relative viability (LU99A; first compound 0.04 µM) was 0.266 and the relative viability (LU99A; first compound 0.1265 µM) was 0.257. The relative viability (LU99A; first compound 0.4 µM) was 0.208, the relative viability (LU99A; first compound 1.265 µM) was 0.269 and the relative viability (LU99A; first compound 4 µM) was 0.315. The relative viability (NCI-H23; first compound 0.04 µM) was 0.321, the relative viability (NCI-H23; first compound 0.1265 µM) was 0.279 and the relative viability (NCI-H23; first compound 0.4 µM) was 0.303. The relative viability (NCI-H23; first compound 1.265 µM) was 0.334, the relative viability (NCI-H23; first compound 4 µM) was 0.194 and the relative viability (LOU-NH91; first compound 0.04 µM) was 0.861. It also gave a relative viability (LOU-NH91; first compound 0.1265 µM) of 0.882, a relative viability (LOU-NH91; first compound 0.4 µM) of 0.733 and a relative viability (LOU-NH91; first compound 1.265 µM) of 0.514. The relative viability (LOU-NH91; first compound 4 µM) was 0.618, the relative viability (NCI-H2126; first compound 0.04 µM) was 0.972 and the relative viability (NCI-H2126; first compound 0.1265 µM) was 0.911. For the same molecule, the relative viability (NCI-H2126; first compound 0.4 µM) was 0.939, the relative viability (NCI-H2126; first compound 1.265 µM) was 0.822 and the relative viability (NCI-H2126; first compound 4 µM) was 0.872. The relative viability (HCC-827; first compound 0.04 µM) was 0.695, the relative viability (HCC-827; first compound 0.1265 µM) was 0.676 and the relative viability (HCC-827; first compound 0.4 µM) was 0.363. For the same molecule, the relative viability (HCC-827; first compound 1.265 µM) was 0.203, the relative viability (HCC-827; first compound 4 µM) was 0.24 and the relative viability (SK-LU-1; first compound 0.04 µM) was 0.447. It also gave a relative viability (SK-LU-1; first compound 0.1265 µM) of 0.442, a relative viability (SK-LU-1; first compound 0.4 µM) of 0.444 and a relative viability (SK-LU-1; first compound 1.265 µM) of 0.417. For the same molecule, the relative viability (SK-LU-1; first compound 4 µM) was 0.295, the relative viability (HCC-366; first compound 0.04 µM) was 0.385 and the relative viability (HCC-366; first compound 0.1265 µM) was 0.391. It also gave a relative viability (HCC-366; first compound 0.4 µM) of 0.352, a relative viability (HCC-366; first compound 1.265 µM) of 0.39 and a relative viability (HCC-366; first compound 4 µM) of 0.38. For the same molecule, the relative viability (HCC-78; first compound 0.04 µM) was 0.868, the relative viability (HCC-78; first compound 0.1265 µM) was 0.664 and the relative viability (HCC-78; first compound 0.4 µM) was 0.511. For the same molecule, the relative viability (HCC-78; first compound 1.265 µM) was 0.302, the relative viability (HCC-78; first compound 4 µM) was 0.422 and the relative viability (HCC-44; first compound 0.04 µM) was 0.912. For the same molecule, the relative viability (HCC-44; first compound 0.1265 µM) was 0.957, the relative viability (HCC-44; first compound 0.4 µM) was 0.934 and the relative viability (HCC-44; first compound 1.265 µM) was 0.921. It also gave a relative viability (HCC-44; first compound 4 µM) of 0.919, a relative viability (NCI-H3122; first compound 0.04 µM) of 0.594 and a relative viability (NCI-H3122; first compound 0.1265 µM) of 0.403. It also gave a relative viability (NCI-H3122; first compound 0.4 µM) of 0.3, a relative viability (NCI-H3122; first compound 1.265 µM) of 0.285 and a relative viability (NCI-H3122; first compound 4 µM) of 0.15. For the same molecule, the relative viability (NCI-H1666; first compound 0.04 µM) was 0.759, the relative viability (NCI-H1666; first compound 0.1265 µM) was 0.737 and the relative viability (NCI-H1666; first compound 0.4 µM) was 0.816. For the same molecule, the relative viability (NCI-H1666; first compound 1.265 µM) was 0.771, the relative viability (NCI-H1666; first compound 4 µM) was 0.684 and the relative viability (LK-2; first compound 0.04 µM) was 0.941. For the same molecule, the relative viability (LK-2; first compound 0.1265 µM) was 0.645, the relative viability (LK-2; first compound 0.4 µM) was 0.718 and the relative viability (LK-2; first compound 4 µM) was 0.501.

Source: the supplement of paper PMC10307832
